Assay results reported in the supplement of paper PMC10307832.

compound: CN1CCN(CC1)C2=CC(=C(C=C2)NC3=NC=C4C(=N3)N(C5=CC=CC=C5C(=O)N4C)C)OC [XMD8-85] + Cc1nc(Nc2ncc(C(=O)Nc3c(C)cccc3Cl)s2)cc(N2CCN(CCO)CC2)n1 [Dasatinib] (partner 0.075 µM); test: relative viability (nuclei count vs DMSO), 5 days (fraction); higher = more cells survive; conditions: first compound 0.08 µM
In short: (§1)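 Lung cancer cell lines, seeded in 1536-well plates, were treated the following day by pin tool with a single drug or with five library-drug doses (not always all listed) in √10 steps on top of a fixed anchor-drug dose. Cells were fixed and nuclei stained in one step after 5 days, and nuclei were counted. Relative viability is the nuclei count for treated wells divided by that for vehicle wells, reported as medians of duplicate plates.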

Compared with ChaGo-K-1, EKVX is higher in relative viability: 0.449 for the first, 0.518 for the second.

First: EMC-BAC-2
Second: EPLC-272H
The relative viability of the first is lower: 0.309 for the first, 0.33 for the second.

Compared with H3255, HARA is lower in relative viability: 0.45 for the first, 0.268 for the second.

Compared with HCC-15, HCC-78 is lower in relative viability: 0.576 for the first, 0.567 for the second.

First: HCC-366
Second: HCC-827
The relative viability of the first is higher: 0.552 for the first, 0.403 for the second.

Going from HOP-62 to LC-2-ad, the relative viability falls from 0.644 to 0.415.

First: LCLC-103H
Second: LOU-NH91
The relative viability of the first is lower: 0.425 for the first, 0.553 for the second.

Going from LU99A to LXF-289, the relative viability falls from 0.477 to 0.214.

Compared with NCI-H23, NCI-H322M is lower in relative viability: 0.719 for the first, 0.246 for the second.

Going from NCI-H358 to NCI-H441, the relative viability rises from 0.167 to 0.42.

Compared with NCI-H460, NCI-H520 is lower in relative viability: 0.423 for the first, 0.199 for the second.

Going from NCI-H1563 to NCI-H1623, the relative viability rises from 0.493 to 0.533.

same assay, conditions: first compound 0.253 µM

First: 201T
Second: A-427
The relative viability of the first is lower: 0.641 for the first, 0.717 for the second.

First: BEN
Second: CAL-12T
The relative viability of the first is lower: 0.332 for the first, 0.363 for the second.

First: COR-L23
Second: COR-L 105
The relative viability of the first is higher: 0.502 for the first, 0.364 for the second.

Compared with EKVX, EMC-BAC-2 is lower in relative viability: 0.545 for the first, 0.341 for the second.

Going from EPLC-272H to H3255, the relative viability rises from 0.253 to 0.325.

Compared with HARA, HCC-15 is higher in relative viability: 0.314 for the first, 0.632 for the second.

First: HCC-78
Second: HCC-366
The relative viability of the first is lower: 0.48 for the first, 0.828 for the second.

Going from HCC-827 to HOP-62, the relative viability rises from 0.33 to 0.594.

Going from LC-2-ad to LCLC-97TM1, the relative viability rises from 0.319 to 0.813.

Going from LCLC-103H to LK-2, the relative viability falls from 0.476 to 0.305.

Going from LOU-NH91 to LU99A, the relative viability rises from 0.555 to 0.675.

First: LXF-289
Second: NCI-H23
The relative viability of the first is lower: 0.23 for the first, 0.853 for the second.

First: NCI-H322M
Second: NCI-H358
The relative viability of the first is higher: 0.249 for the first, 0.173 for the second.

Going from NCI-H441 to NCI-H460, the relative viability falls from 0.576 to 0.443.

First: NCI-H520
Second: NCI-H1563
The relative viability of the first is lower: 0.208 for the first, 0.431 for the second.

Cell Line NCI-H1623 has a relative viability of 0.571.

same assay, conditions: first compound 0.8 µM

Compared with 201T, A-427 is higher in relative viability: 0.55 for the first, 0.749 for the second.

First: ABC-1
Second: BEN
The relative viability of the first is higher: 0.503 for the first, 0.38 for the second.

Compared with CAL-12T, COR-L23 is higher in relative viability: 0.431 for the first, 0.555 for the second.

Compared with COR-L 105, ChaGo-K-1 is higher in relative viability: 0.292 for the first, 0.613 for the second.

Compared with EKVX, EMC-BAC-2 is lower in relative viability: 0.478 for the first, 0.337 for the second.

Going from EPLC-272H to H3255, the relative viability falls from 0.4 to 0.353.

Going from HARA to HCC-15, the relative viability rises from 0.281 to 0.614.

First: HCC-78
Second: HCC-366
The relative viability of the first is lower: 0.42 for the first, 0.642 for the second.

Going from HCC-827 to HOP-62, the relative viability rises from 0.34 to 0.661.

First: LC-2-ad
Second: LCLC-97TM1
The relative viability of the first is lower: 0.482 for the first, 0.856 for the second.

Going from LCLC-103H to LK-2, the relative viability falls from 0.575 to 0.262.

Compared with LOU-NH91, LU99A is higher in relative viability: 0.573 for the first, 0.61 for the second.

Going from LXF-289 to NCI-H23, the relative viability rises from 0.208 to 0.885.

First: NCI-H322M
Second: NCI-H358
The relative viability of the first is higher: 0.289 for the first, 0.169 for the second.

First: NCI-H441
Second: NCI-H460
The relative viability of the first is higher: 0.728 for the first, 0.554 for the second.

Going from NCI-H520 to NCI-H1563, the relative viability rises from 0.182 to 0.448.

NCI-H1623 gave a relative viability of 0.533.

same assay, conditions: first compound 2.53 µM

Going from 201T to A-427, the relative viability rises from 0.616 to 0.797.

Going from ABC-1 to BEN, the relative viability falls from 0.673 to 0.27.

First: CAL-12T
Second: COR-L23
The relative viability of the first is lower: 0.447 for the first, 0.63 for the second.

Going from COR-L 105 to ChaGo-K-1, the relative viability rises from 0.268 to 0.57.

First: EKVX
Second: EMC-BAC-2
The relative viability of the first is higher: 0.536 for the first, 0.347 for the second.

Compared with EPLC-272H, H3255 is lower in relative viability: 0.501 for the first, 0.333 for the second.

First: HARA
Second: HCC-15
The relative viability of the first is lower: 0.261 for the first, 0.656 for the second.

Going from HCC-78 to HCC-366, the relative viability rises from 0.352 to 0.74.

Going from HCC-827 to LC-2-ad, the relative viability falls from 0.439 to 0.345.

Going from LCLC-97TM1 to LCLC-103H, the relative viability falls from 1.01 to 0.505.

Compared with LK-2, LOU-NH91 is higher in relative viability: 0.261 for the first, 0.571 for the second.

Going from LU99A to LXF-289, the relative viability falls from 0.688 to 0.243.

Going from NCI-H23 to NCI-H322M, the relative viability falls from 0.751 to 0.232.

First: NCI-H358
Second: NCI-H441
The relative viability of the first is lower: 0.207 for the first, 0.715 for the second.

Compared with NCI-H460, NCI-H520 is lower in relative viability: 0.475 for the first, 0.216 for the second.

First: NCI-H1563
Second: NCI-H1623
The relative viability of the first is lower: 0.465 for the first, 0.56 for the second.

same assay, conditions: first compound 8 µM

Compared with 201T, A-427 is higher in relative viability: 0.529 for the first, 0.618 for the second.

Compared with ABC-1, BEN is lower in relative viability: 0.408 for the first, 0.301 for the second.

Going from CAL-12T to COR-L23, the relative viability rises from 0.225 to 0.347.

First: COR-L 105
Second: ChaGo-K-1
The relative viability of the first is lower: 0.171 for the first, 0.577 for the second.

Compared with EKVX, EMC-BAC-2 is lower in relative viability: 0.475 for the first, 0.39 for the second.

Going from EPLC-272H to H3255, the relative viability rises from 0.25 to 0.335.

Compared with HARA, HCC-15 is higher in relative viability: 0.238 for the first, 0.417 for the second.

First: HCC-78
Second: HCC-366
The relative viability of the first is lower: 0.242 for the first, 0.601 for the second.

Going from HCC-827 to HOP-62, the relative viability falls from 0.457 to 0.433.

Compared with LC-2-ad, LCLC-97TM1 is higher in relative viability: 0.237 for the first, 0.87 for the second.

Going from LCLC-103H to LK-2, the relative viability falls from 0.379 to 0.222.

Compared with LOU-NH91, LU99A is lower in relative viability: 0.459 for the first, 0.388 for the second.

First: LXF-289
Second: NCI-H23
The relative viability of the first is lower: 0.2 for the first, 0.528 for the second.

Going from NCI-H322M to NCI-H358, the relative viability falls from 0.19 to 0.18.

First: NCI-H441
Second: NCI-H460
The relative viability of the first is higher: 0.516 for the first, 0.178 for the second.

Going from NCI-H520 to NCI-H1563, the relative viability rises from 0.159 to 0.412.

In the case of NCI-H1623, the relative viability is reported as 0.444.

compound: CN1CCN(CC1)C2=CC(=C(C=C2)NC3=NC=C4C(=N3)N(C5=CC=CC=C5C(=O)N4C)C)OC [XMD8-85] + O=C(CCCCCCC(=O)Nc1ccccc1)NO [Vorinostat] (partner 1 µM); test: as above; conditions: first compound 0.08 µM
In short: as §1

Compared with 201T, A-427 is lower in relative viability: 1.01 for the first, 0.89 for the second.

First: ABC-1
Second: BEN
The relative viability of the first is higher: 1.2 for the first, 0.554 for the second.

Going from CAL-12T to COR-L23, the relative viability falls from 0.724 to 0.413.
